Results published in US9499550B2 (BRISTOL-MYERS SQUIBB COMPANY, priority 2012, dated 2016).

How the values were obtained:
[1] = test system: HCV genotype 1b (Con1) replicon in HUH-7 cells; test: HCV replicon luciferase reporter assay, genotype 1b; format: cell-based; conditions: Hepatitis C virus, Huh-7, 72 h, HCV genotype 1b replicon luciferase, 3 days incubation, read-out: LE_1b (EC50, range)
Method in brief: (§1)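 Replicon inhibition for both genotypes was measured as Renilla luciferase signal (EnduRen, 7.5 μM final, 2 h) after 3-day, 37° C exposure of replicon-bearing HUH-7 cells in 4% FCS DMEM, 0.5% DMSO. The 1b construct carries S1179I; the 1a H77 construct carries P1496L and S2204I. Twenty-point, 3-fold dilutions were fitted four-parametrically for EC50, and CC50 was taken from multiplexed Cell Titer-Blue.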

[2] = test system: HCV genotype 1a (H77 strain) replicon in HUH-7 cells; test: HCV replicon luciferase reporter assay, genotype 1a; format: cell-based; conditions: Hepatitis C virus, Huh-7, 72 h, HCV genotype 1a replicon luciferase, 3 days incubation, read-out: LE_1a (EC50, range)
Method in brief: as §1

SMILES	EC50 [1] [nM]	EC50 [2] [nM]
COc1ccc2c(O[C@@H]3C[C@H]4C(=O)N[C@]5(C(=O)NS(=O)(=O)C6(C)CC6)C[C@H]5/C=C\CC[C@@H](C)C[C@@H](C)[C@H](NC(=O)OC(C)(C)C)C(=O)N4C3)nc(OC(C)C)cc2c1 [Compound 3196, tert-butyl ((2R,6S,7R,9R,13aS,14aR,16aS,Z)-2-((3-isopropoxy-6-methoxyisoquinolin-1-yl)oxy)-7,9-dimethyl-14a-(((1-methylcyclopropyl)sulfonyl)carbamoyl)-5,16-dioxo-1,2,3,5,6,7,8,9,10,11,13a,14,14a,15,16,16a-hexadecahydrocyclopropa[e]pyrrolo[1,2-a][1,4]diazacyclopentadecin-6-yl)carbamate]	0.1 to 0.5	0.51 to 1
CCOc1cc2cc(OC)ccc2c(O[C@@H]2C[C@H]3C(=O)N[C@]4(C(=O)NS(=O)(=O)C5(C)CC5)C[C@H]4/C=C\CC[C@@H](C)C[C@@H](C)[C@H](NC(=O)OC(C)(C)C(F)(F)F)C(=O)N3C2)n1 [Compound 3198, 1,1,1-trifluoro-2-methylpropan-2-yl((2R,6S,7R,9R,13aS,14aR,16aS,Z)-2-((3-ethoxy-6-methoxyisoquinolin-1-yl)oxy)-7,9-dimethyl-14a-(((1-methylcyclopropyl)sulfonyl)carbamoyl)-5,16-dioxo-1,2,3,5,6,7,8,9,10,11,13a,14,14a,15,16,16a-hexadecahydrocyclopropa[e]pyrrolo[1,2-a][1,4]diazacyclopentadecin-6-yl)carbamate]	1.01 to 5	0.51 to 1
CCOc1cc2cc(OC)ccc2c(O[C@@H]2C[C@H]3C(=O)N[C@]4(C(=O)NS(=O)(=O)C5(C)CC5)C[C@H]4/C=C\CC[C@@H](C)C[C@@H](C)[C@H](NC(=O)OC(C)(C)C(C)(F)F)C(=O)N3C2)n1 [Compound 3200, 3,3-difluoro-2-methylbutan-2-yl((2R,6S,7R,9R,13aS,14aR,16aS,Z)-2-((3-ethoxy-6-methoxyisoquinolin-1-yl)oxy)-7,9-dimethyl-14a-(((1-methylcyclopropyl)sulfonyl)carbamoyl)-5,16-dioxo-1,2,3,5,6,7,8,9,10,11,13a,14,14a,15,16,16a-hexadecahydrocyclopropa[e]pyrrolo[1,2-a][1,4]diazacyclopentadecin-6-yl)carbamate]	0.51 to 1	0.51 to 1
COc1ccc2c(O[C@@H]3C[C@H]4C(=O)N[C@]5(C(=O)NS(=O)(=O)C6(C)CC6)C[C@H]5/C=C\CC[C@@H](C)C[C@@H](C)[C@H](NC(=O)OC(C)(C)C(F)(F)F)C(=O)N4C3)nc(OC(C)C)cc2c1 [Compound 3202, 1,1,1-trifluoro-2-methylpropan-2-yl((2R,6S,7R,9R,13aS,14aR,16aS,Z)-2-((3-isopropoxy-6-methoxyisoquinolin-1-yl)oxy)-7,9-dimethyl-14a-(((1-methylcyclopropyl)sulfonyl)carbamoyl)-5,16-dioxo-1,2,3,5,6,7,8,9,10,11,13a,14,14a,15,16,16a-hexadecahydrocyclopropa[e]pyrrolo[1,2-a][1,4]diazacyclopentadecin-6-yl)carbamate]	1.01 to 5	1.01 to 5
COc1ccc2c(O[C@@H]3C[C@H]4C(=O)N[C@]5(C(=O)NS(=O)(=O)C6(C)CC6)C[C@H]5/C=C\CC[C@@H](C)C[C@@H](C)[C@H](NC(=O)OC(C)(C)C(C)(F)F)C(=O)N4C3)nc(OC(C)C)cc2c1 [Compound 3204, 3,3-difluoro-2-methylbutan-2-yl((2R,6S,7R,9R,13aS,14aR,16aS,Z)-2-((3-isopropoxy-6-methoxyisoquinolin-1-yl)oxy)-7,9-dimethyl-14a-(((1-methylcyclopropyl)sulfonyl)carbamoyl)-5,16-dioxo-1,2,3,5,6,7,8,9,10,11,13a,14,14a,15,16,16a-hexadecahydrocyclopropa[e]pyrrolo[1,2-a][1,4]diazacyclopentadecin-6-yl)carbamate]	1.01 to 5	0.51 to 1
CC[C@@H]1C[C@H](C)CC/C=C\[C@@H]2C[C@@]2(C(=O)NS(=O)(=O)C2(C)CC2)NC(=O)[C@@H]2C[C@@H](Oc3ncc(OC)c4cc(N(C)C)ccc34)CN2C(=O)[C@H]1NC(=O)OC(C)(C)C [Compound 3206, tert-butyl ((2R,6S,7R,9R,13aS,14aR,16aS,Z)-2-((6-(dimethylamino)-4-methoxyisoquinolin-1-yl)oxy)-7-ethyl-9-methyl-14a-(((1-methylcyclopropyl)sulfonyl)carbamoyl)-5,16-dioxo-1,2,3,5,6,7,8,9,10,11,13a,14,14a,15,16,16a-hexadecahydrocyclopropa[e]pyrrolo[1,2-a][1,4]diazacyclopentadecin-6-yl)carbamate]	1.01 to 5	1.01 to 5
CC[C@@H]1C[C@H](C)CC/C=C\[C@@H]2C[C@@]2(C(=O)NS(=O)(=O)C2(C)CC2)NC(=O)[C@@H]2C[C@@H](Oc3ncc(OC)c4cc(N(C)C)ccc34)CN2C(=O)[C@H]1NC(=O)OC(C)(C)C(F)(F)F [Compound 3208, 1,1,1-trifluoro-2-methylpropan-2-yl((2R,6S,7R,9R,13aS,14aR,16aS,Z)-2-((6-(dimethylamino)-4-methoxyisoquinolin-1-yl)oxy)-7-ethyl-9-methyl-14a-(((1-methylcyclopropyl)sulfonyl)carbamoyl)-5,16-dioxo-1,2,3,5,6,7,8,9,10,11,13a,14,14a,15,16,16a-hexadecahydrocyclopropa[e]pyrrolo[1,2-a][1,4]diazacyclopentadecin-6-yl)carbamate]	0.51 to 1	1.01 to 5
COc1cc2cc(F)ccc2c(O[C@@H]2C[C@H]3C(=O)N[C@]4(C(=O)NS(=O)(=O)C5(CF)CC5)C[C@H]4/C=C\CC[C@@H](C)C[C@@H](C)[C@H](NC(=O)OC(C)(C)C)C(=O)N3C2)n1 [Compound 3210, tert-butyl ((2R,6S,7R,9R,13aS,14aR,16aS,Z)-2-((6-fluoro-3-methoxyisoquinolin-1-yl)oxy)-14a-(((1-(fluoromethyl)cyclopropyl)sulfonyl)carbamoyl)-7,9-dimethyl-5,16-dioxo-1,2,3,5,6,7,8,9,10,11,13a,14,14a,15,16,16a-hexadecahydrocyclopropa[e]pyrrolo[1,2-a][1,4]diazacyclopentadecin-6-yl)carbamate]	0.1 to 0.5	1.01 to 5
CC[C@@H]1C[C@H](C)CC/C=C\[C@@H]2C[C@@]2(C(=O)NS(=O)(=O)C2(C)CC2)NC(=O)[C@@H]2C[C@@H](Oc3nc(OC)cc4cc(F)ccc34)CN2C(=O)[C@H]1NC(=O)OC(C)(C)C [Compound 3212, tert-butyl ((2R,6S,7R,9R,13aS,14aR,16aS,Z)-7-ethyl-2-((6-fluoro-3-methoxyisoquinolin-1-yl)oxy)-9-methyl-14a-(((1-methylcyclopropyl)sulfonyl)carbamoyl)-5,16-dioxo-1,2,3,5,6,7,8,9,10,11,13a,14,14a,15,16,16a-hexadecahydrocyclopropa[e]pyrrolo[1,2-a][1,4]diazacyclopentadecin-6-yl)carbamate]	0.1 to 0.5	0.51 to 1
COc1cc2cc(F)ccc2c(O[C@@H]2C[C@H]3C(=O)N[C@]4(C(=O)NS(=O)(=O)C5(CF)CC5)C[C@H]4/C=C\CC[C@@H](C)C[C@@H](C)[C@H](NC(=O)OC(C)(C)C(F)(F)F)C(=O)N3C2)n1 [Compound 3214, 1,1,1-trifluoro-2-methylpropan-2-yl((2R,6S,7R,9R,13aS,14aR,16aS,Z)-2-((6-fluoro-3-methoxyisoquinolin-1-yl)oxy)-14a-(((1-(fluoromethyl)cyclopropyl)sulfonyl)carbamoyl)-7,9-dimethyl-5,16-dioxo-1,2,3,5,6,7,8,9,10,11,13a,14,14a,15,16,16a-hexadecahydrocyclopropa[e]pyrrolo[1,2-a][1,4]diazacyclopentadecin-6-yl)carbamate]	0.1 to 0.5	1.01 to 5
CC[C@@H]1C[C@H](C)CC/C=C\[C@@H]2C[C@@]2(C(=O)NS(=O)(=O)C2(C)CC2)NC(=O)[C@@H]2C[C@@H](Oc3nc(OC)cc4cc(F)ccc34)CN2C(=O)[C@H]1NC(=O)OC(C)(C)C(C)(F)F [Compound 3216, 3,3-difluoro-2-methylbutan-2-yl((2R,6S,7R,9R,13aS,14aR,16aS,Z)-7-ethyl-2-((6-fluoro-3-methoxyisoquinolin-1-yl)oxy)-9-methyl-14a-(((1-methylcyclopropyl)sulfonyl)carbamoyl)-5,16-dioxo-1,2,3,5,6,7,8,9,10,11,13a,14,14a,15,16,16a-hexadecahydrocyclopropa[e]pyrrolo[1,2-a][1,4]diazacyclopentadecin-6-yl)carbamate]	0.1 to 0.5	1.01 to 5
COc1cc2cc(F)ccc2c(O[C@@H]2C[C@H]3C(=O)N[C@]4(C(=O)NS(=O)(=O)C5(CF)CC5)C[C@H]4/C=C\CC[C@@H](C)C[C@@H](C)[C@H](NC(=O)OC(C)(C)C(C)(F)F)C(=O)N3C2)n1 [Compound 3218, 3,3-difluoro-2-methylbutan-2-yl((2R,6S,7R,9R,13aS,14aR,16aS,Z)-2-((6-fluoro-3-methoxyisoquinolin-1-yl)oxy)-14a-(((1-(fluoromethyl)cyclopropyl)sulfonyl)carbamoyl)-7,9-dimethyl-5,16-dioxo-1,2,3,5,6,7,8,9,10,11,13a,14,14a,15,16,16a-hexadecahydrocyclopropa[e]pyrrolo[1,2-a][1,4]diazacyclopentadecin-6-yl)carbamate]	0.1 to 0.5	1.01 to 5
CC[C@@H]1C[C@H](C)CC/C=C\[C@@H]2C[C@@]2(C(=O)NS(=O)(=O)C2(C)CC2)NC(=O)[C@@H]2C[C@@H](Oc3nc(OC)cc4cc(F)ccc34)CN2C(=O)[C@H]1NC(=O)OC(C)(C)C(F)(F)F [Compound 3220, 1,1,1-trifluoro-2-methylpropan-2-yl((2R,6S,7R,9R,13aS,14aR,16aS,Z)-7-ethyl-2-((6-fluoro-3-methoxyisoquinolin-1-yl)oxy)-9-methyl-14a-(((1-methylcyclopropyl)sulfonyl)carbamoyl)-5,16-dioxo-1,2,3,5,6,7,8,9,10,11,13a,14,14a,15,16,16a-hexadecahydrocyclopropa[e]pyrrolo[1,2-a][1,4]diazacyclopentadecin-6-yl)carbamate]	0.1 to 0.5	1.01 to 5
